For 1 compound, Km results are on record in patent publication US5000966A, “Quality improvement of alcoholic liquors by enzymatic decomposing of ethyl carbamate” (Takeda Chemical Industries, Ltd., priority 1987, dated 1991).

In this assay the test system is Candida krusoides ATCC 7345 enzyme capable of decomposing ethyl carbamate (partially purified crude enzyme of Example 5). In words: Km of the ethyl carbamate-decomposing enzyme (ammonia formation, nitroprusside method). It is filed as biochemical. Particulars: pH 4, 0.2M citrate buffer; substrate not given, taken as ethyl carbamate. The protocol: The activity of decomposing ethyl carbamate in the culture broth or its processed matter was determined colorimetrically by the nitroprusside method on ammonia produced by the reaction at 30° C. for 30 minutes of the mixture of a volume of a suspension of the cells in sterilized deionized water collected by centrifugation of the culture which had been diluted appropriately, […] The amount of enzyme to produce one micromole of ammonia per unit time (one minute) is expressed as 1 unit (1U). Candida krusoides ATCC 7345 was cultivated in the same manner as described in Example 1 to give 2 l of a culture broth having an activity of 0.007 U/ml for decomposing ethyl carbamate. The cells were collected from the culture broth by centrifugation, washed with 0.05M phosphate buffer (pH 7.2) twice, suspended in a solution containing 1 mM of EDTA and 1 mM of dithiothreitol, broken down by treating with a cell mill containing glass beads having 0.1-0.2 mm in diameter and were treated at 4500 rpm for 20 minutes The treated product was centrifuged and to the supernatant was added ammonium sulfate so that the concentration comes to 90%. […]

One may read the Km as the concentration of substrate that gives half-maximal velocity. On to `CCOC(N)=O` [ethyl carbamate], for which the Km worked out at 65 mM.
